From patent US12458641B2, “NK-3 receptor antagonists for therapeutic or cosmetic treatment of excess body fat” (Ogeda SA, priority 2015, dated 2025)
“And” between values parts separate entries of the source, which are not always exact repeats. Identical values can stand only once.

How the values were obtained:
[1] = rats fed standard chow or high-fat diet (Li et al., 2014); cited from earlier work
[2] = Body weight and BMI in healthy women with normal corpulence; type: in vivo, human; details: 60 mg for 21 consecutive days, individual subjects
Experimental: Healthy women with normal corpulence, i.e. having a BMI ranging from 18.5 to 25 kg/m^2, received 60 mg of compound k-5 for 21 consecutive days.
(§1) The weight was measured at screening which took place between 28 and 2 days before start of dosing (D-28 to D-2), as well as on the follow-up visit planned on D42 (21 days after cessation of study compound intake).

[3] = test system: leptin; assay: Plasma leptin level in female rats over the estrous cycle (ELISA, AUC); type: in vivo; details: 10 mg/kg oral BID, p<0.05 paired t-test (FIG. 5)
Experimental: Daily plasma samples were collected each morning from sexually-mature female rats and analyzed for peak estrogen levels (coincident with proestrus) in order to define the timing of the estrous cycle for individual rats. Next, rats were dosed orally BID (i.e. twice a day) with vehicle (0.5% methylcellulose) over a 4-day ‘baseline’ estrous cycle. Plasma samples were collected daily, each morning, and stored frozen prior to analysis for leptin. […] Plasma samples were collected daily, each morning, and stored frozen prior to analysis for leptin. In a single experiment, plasma samples collected daily during both the ‘baseline’ and ‘treatment’ cycles were analyzed in a common experiment by ELISA assay based upon linear regression analysis against a standard curve. Leptin levels over the 4-day estrous cycle were calculated for individual rats by determination of AUC (area-under-the-curve) using credited data analysis software (GraphPad Prism).

[4] = test system: leptin; assay: Plasma leptin level in women (placebo-controlled, ELISA); type: in vivo, human; details: non-obese premenopausal women; 20, 60 and 180 mg once daily, all dose levels; p<0.05 paired t-test (FIG. 4)
From the text: This was a randomized, double-blind, placebo-controlled study. All subjects provided written informed consent prior to screening for study eligibility. Healthy female volunteers aged 20-45 years with a body mass index of 19-30 kg/m^2 were included. Participants needed to be in good physical health including the presence of a regular ovulatory menstrual cycle and the discontinuation of all hormonal contraceptive methods at least 3 months prior to screening. Three panels of 8 non-obese female volunteers (median BMI of each panel: 22.3, 23.4, 25.2 kg/m^2) each were administered capsules of compound k-5 or matching placebo in a 6:2 ratio for 21 days. Subjects received the study medication in a once daily regimen after a light standardized breakfast. The participants in these panels were synchronized for their menstrual cycle; i.e. the initiation of dosing was always on Day3±2 of the menstrual cycle. The dose levels investigated were 20, 60 and 180 mg of compound k-5. Blood samples were collected on the day prior to dosing as well as on Day 21 (the final day of dosing) and plasma fractions were retained and stored frozen (−20° C.) until analysis. Leptin concentrations in these plasma samples were determined by ELISA assay (Human Leptin Kit: R&D Systems, Cat. N° DLP00) based upon linear regression analysis against a standard curve.

[5] = Body weight and BMI in overweight women; type: in vivo, human; details: 180 mg for 21 consecutive days, individual subjects
Experimental: Overweight women, i.e. having a BMI ranging from 25 to 30 kg/m^2, received 180 mg of compound k-5 for 21 consecutive days.
as §1

[6] = Multiple ascending dose administration in healthy women: body weight; type: in vivo, human; details: for Weight D 42 / Weight Screening: group mean; for Weight D 42: 21 days after last dose; for Weight Screening: before dosing (D-28 to D-2); for Pre vs Post Difference / Pre vs Post Difference (%): screening vs D42
Experimental: Three Panels A, B, and C, each consisting of 6 healthy women, were randomized to receive different dose level of compound k-5. In those 3 panels, compound k-5 is administered for 21 consecutive days.
Subjects were residential from the day before first dosing (D-1) until Day 24 (=72 hours after the last dose intake on Day 21). Weekly non-residential visits were organized on Day 28, Day 35 (±1 day) and a follow-up visit on Day 42 (±2 days). Ascending multiple doses of compound k-5 were administered in a once-daily regimen for 21 consecutive days. […] Subjects received the trial medication in a q.d. regimen and after a light breakfast.
Subjects were recruited on the basis of their medical history and health status. Especially, subjects meeting all of the following criteria were eligible to participate in this study: • 1) Premenopausal females between 18 and 45 years of age inclusive. • 2) Healthy with no clinically significant abnormalities as determined by medical history, physical examination, blood chemistry assessments, hematologic assessments, coagulation and urinalysis, measurement of vital signs, and ECG. Isolated out-of-range values judged by the physician to be of no clinical significance were allowed. […] Weight Measurement
The weight was measured at screening, which took place between 28 and 2 days before start of dosing (D-28 to D-2), and at the end-of-study visit (D42, i.e. 21 days after cessation of study compound intake).
A two-tailed T-test for paired samples was used to explore the difference between the screening and post-study values for weight.

[7] = test system: leptin; assay: 13-week oral dosing in cynomolgus monkeys: serum leptin by ELISA; type: in vivo, cynomolgus monkeys (Macaca fascicularis)
Experimental: (§2) NHPs were divided into three treatment groups: vehicle control (N=6) and compound k-5 Dose Groups of 10 mg/kg (N=4) and 50 mg/kg (N=6), respectively. All NHPs were dosed once daily (morning) by oral gavage over the 13 week treatment period of the study. The dose vehicle was 0.5% methylcellulose (Methocel® from Colorcon) in water.
All NHPs were subjected to leptin levels measurements. Blood samples were collected at 08 h00 in the morning from overnight-fasted animals on Day-2 prior to dosing (‘pre-dose’), 24 h after the initial dosing, on day 52 of dosing and on day 86 of dosing. Serum samples were derived from these blood samples and stored frozen (−20° C.) until analysis. Leptin concentrations in these serum samples were determined by ELISA assay (Monkey Kit: MyBiosource Cat. N° MBS705354) based upon linear regression analysis against a standard curve.

[8] = 13-week oral dosing in cynomolgus monkeys: whole-body DEXA scan (lean mass, bone mineral density, bone mineral content, fat mass); type: in vivo, cynomolgus monkeys (Macaca fascicularis)
Experimental: (§3) Sexually-mature (age range of ˜4 years at pre-dose), purpose-bred cynomolgus monkeys (Macaca fascicularis) of Asian origin were used. Sexual maturity was proven by recording of at least two menstrual bleedings (with 20-to-50 days between menstruations) prior to entry into the study.
as §2
All NHPs were subjected to a body weight measurement and DEXA scan (Dual-energy X-ray absorptiometry, Hologic Dexa QDR® 4000) in the pre-dose phase and in the final week (week-13) of the dosing phase. The measurements were made under ketamine anesthesia with dorbene and antisedan.
The whole body was scanned by DEXA for measurement of lean mass, bone mineral density, bone mineral content and fat mass.

[9] = 13-week once-daily oral dosing in cynomolgus monkeys: body weight; type: in vivo, cynomolgus monkeys (Macaca fascicularis); details: female monkeys, 13 weeks, 50 mg/kg (FIG. 3), vehicle group gained about 12%
From the text: The cynomolgus monkey was selected as a relevant species because of the similarity of nonhuman primates (NHP) to humans. The route of administration is oral consistent with the intended route in humans.
as §3
NHPs were maintained on a standard lab diet of twice-daily offerings of commercial pellets for primates supplemented with fresh fruit and bread. Dietary and environmental enrichment were also provided through the study duration. Animals were housed in a climate (19-25° C.) and humidity (40-70%) controlled environment with artificial lighting controlled automatically to give a cycle of 12 hours light and 12 hours dark.
as §2, with “water. […]” for “water.”

Question: Which effect on weight [1] does the source give for `CC[C@H](NC(=O)c1c(C)c(-c2ccccc2)nc2ccccc12)c1ccccc1` [SB222200, 3-Methyl-2-phenyl-N-[(1S)-1-phenylpropyl]-4-quinolinecarboxamide] here?
Answer: no effect on weight was observed

Question: For `Cc1nsc(-c2nnc3n2CCN(C(=O)c2ccc(F)cc2)[C@@H]3C)n1` [k-5, (R)-(4-fluorophenyl)(8-methyl-3-(3-methyl-1,2,4-thiadiazol-5-yl)-5,6-dihydro-[1,2,4]triazolo[4,3-a]pyrazin-7(8H)-yl)methanone], which “BMI D 42” value ([2]; D42) is on record?
Answer: 21.45 and 22.95 and 21.39

Question: What about the BMI screening ([2]; before dosing) of the same compound?
Answer: 22.18 and 23.71 and 21.55

Question: What about the “Difference” value ([2]; screening vs D42) of the same compound?
Answer: -2.2 kg and -2 kg and -0.5 kg

Question: And the “Difference (%)” value ([2]; screening vs D42)?
Answer: −3.43% and −3.28% and −0.74%

Question: What about the “Weight D 42” value ([2]; women BMI 18.5 to 25 kg/m^2, D42) of the same compound?
Answer: 64.2 kg and 61 kg and 67.8 kg

Question: What about the “Weight Screening” value ([2]; women BMI 18.5 to 25 kg/m^2, before dosing) of the same compound?
Answer: 66.4 kg and 63 kg and 68.3 kg

Question: And the “plasma leptin levels over the 4-day estrous cycle (AUC) versus baseline cycle” value [3]?
Answer: increases plasma leptin levels

Question: What about the “leptin levels following 21 days of treatment relative to pre-dose levels” value [4] of the same compound?
Answer: increases serum leptin levels

Question: And the “BMI D 42” value ([5]; D42)?
Answer: 26.79 and 26.17 and 26.21

Question: And the BMI screening ([5]; before dosing)?
Answer: 27.94 and 27.81 and 27.15

Question: What about the “Difference” value ([5]; screening vs D42) of the same compound?
Answer: -2.8 kg and -4.2 kg and -3 kg

Question: And the “Difference (%)” value ([5]; screening vs D42)?
Answer: −4.29% and −6.27% and −3.57%

Question: What about the “Weight Screening” value ([5]; overweight women BMI 25 to 30 kg/m^2, before dosing) of the same compound?
Answer: 68 kg and 71.2 kg and 87 kg

Question: And the “Weight D 42” value ([5]; overweight women, D42)?
Answer: 65.2 kg and 67 kg and 84 kg

Question: What about the “Weight D 42” value ([6]; 20 mg once daily for 21 days) of the same compound?
Answer: 58.0 kg

Question: What about the “Weight Screening” value ([6]; 20 mg once daily for 21 days) of the same compound?
Answer: 58.2 kg

Question: And the “Pre vs Post Difference” value ([6]; 20 mg once daily for 21 days)?
Answer: -0.13 kg

Question: And the “Pre vs Post Difference (%)” value ([6]; 20 mg once daily for 21 days)?
Answer: −0.23%

Question: And the “Weight D 42” value ([6]; 60 mg once daily for 21 days)?
Answer: 71.9 kg

Question: And the “Weight Screening” value ([6]; 60 mg once daily for 21 days)?
Answer: 73.3 kg

Question: And the “Pre vs Post Difference” value ([6]; 60 mg once daily for 21 days)?
Answer: -1.38 kg

Question: What about the “Pre vs Post Difference (%)” value ([6]; 60 mg once daily for 21 days) of the same compound?
Answer: −1.92%

Question: And the “Weight D 42” value ([6]; 180 mg once daily for 21 days)?
Answer: 66.9 kg

Question: And the “Weight Screening” value ([6]; 180 mg once daily for 21 days)?
Answer: 69.0 kg

Question: And the “Pre vs Post Difference” value ([6]; 180 mg once daily for 21 days)?
Answer: -2.10 kg

Question: And the “Pre vs Post Difference (%)” value ([6]; 180 mg once daily for 21 days)?
Answer: −3.14%

Question: And the “weight lowering with increasing doses” value ([6]; 20, 60, 180 mg once daily for 21 days, healthy women)?
Answer: dose-dependent trend exists towards weight lowering

Question: And the “serum leptin levels 24-hours after initial dosing” value ([7]; 50 mg/kg oral (FIG. 2), relative to pre-dose and to time-matched vehicle group)?
Answer: significantly increases

Question: And the “serum leptin levels over the duration of dosing relative to vehicle-treated group” value ([7]; 50 mg/kg oral once daily, up to day 86 (FIG. 2))?
Answer: persistently higher

Question: What about the “% fat/total mass, treated versus vehicle-treated group” value ([8]; 50 mg/kg, week 13, N=6/group) of the same compound?
Answer: statistically-significant difference

Question: And the “change in % fat/total mass over the 13-week treatment period (DEXA)” value ([8]; 10 and 50 mg/kg dose groups, pre-dose vs week 13, increased in the vehicle group (FIG. 1))?
Answer: no significant change

Question: What about the “change in mean weight over the course of the dosing phase” value [9] of the same compound?
Answer: no significant change
